Experimental data reported in patent publication US11925194B2, “Antimicrobially active mixtures” (SYMRISE AG, priority 2017, dated 2024).

Legend:
S. cerevisiae [1] = test: Antimicrobial effect of extracts and fractions, citrate buffer pH 5; assay type: cell-based, Saccharomyces cerevisiae
Excerpt: For further examination of the antimicrobial effect of different extracts alone, i.e. without a combination with component (B) or fractions thereof according to the invention, exemplary extracts or fractions thereof such as described in Examples 1 to 4 were used. […] The samples were inoculated with 3.8×10^4 CFU/mL […].

S. cerevisiae [2] = test: Germ load test of aroma and extract combinations, pure water pH 7; assay type: cell-based, Saccharomyces cerevisiae; conditions: 400 ppm in sample
Excerpt: (§1) In the scope of a further test, the antimicrobial effect of aroma and extract combinations was examined. […] For example, grape stone extract and the flavouring agent vanillic acid have a different effect against yeasts. In the combination, however, also an effect against fungi and an optimal effect against yeasts was observed. The pomegranate and red berry extract have a lower effect at pH 7 compared to pH 3 (cf. Example 5), the pomegranate extract eliminates S. cerevisiae in less than 14 days at 1000 mg/kg. In combination with Limonene-containing lemon oils, however, the effect can be increased for higher pH values.

C. albicans = test: as above; assay type: cell-based, Candida albicans; conditions: 400 ppm in sample
Excerpt: as §1

Z. bailii = test: as above; assay type: cell-based, Zygosaccharomyces bailii; conditions: 400 ppm in sample
Excerpt: as §1

Row | Compound | Reduction in the germination number of S. cerevisiae (in words) (S. cerevisiae [1]; 375 mg/kg, pH 5, 28 days) | Germination number S. cerevisiae after 28 days (S. cerevisiae [1]; dose 375 mg/kg, citrate buffer pH 5, after inoculation 3.80E+04) | Elimination of S. cerevisiae in less than (time) (S. cerevisiae [2]) | Elimination of C. albicans in less than (time) (C. albicans) | Elimination of Z. bailii in less than (time) (Z. bailii)
1 | C/C=C/C=C/C(=O)[O-].[K+] [potassium sorbate] | did not show a significant reduction | 1.00E+03 CFU/mL |  |  | 
2 | COc1cc(C(=O)O)ccc1O [Vanillic acid] |  |  | < 14 days | < 24 h | < 24 h
